Assay results as given in patent publication US8058276B2, “Heterobicyclic carboxamides as inhibitors for kinases” (Novartis AG, priority 2006, dated 2011).

Row | SMILES | melting point [°C]
1 | CN1CCN(Cc2ccc(NC(=O)c3nsc4cc(Oc5ccnc(N)n5)ccc34)cc2C(F)(F)F)CC1 [Example 7, 6-(2-Amino-pyrimidin-4-yloxy)-benzo[d]isothiazole-3-carboxylic acid [4-(4-methyl-piperazin-1-ylmethyl)-3-trifluoromethyl-phenyl]-amide] | 215 to 217
2 | Nc1nccc(Oc2ccc3c(C(=O)Nc4cccc(C(F)(F)F)c4)cnn3c2)n1 [Example 15, 6-(2-Amino-pyrimidin-4-yloxy)-pyrazolo[1,5-a]pyridine-3-carboxylic acid (3-trifluoromethyl-phenyl)-amide] | 102 to 104
3 | Nc1nccc(Oc2ccc3c(C(=O)Nc4ccc(F)c(C(F)(F)F)c4)nsc3c2)n1 [Example 6, 6-(2-Amino-pyrimidin-4-yloxy)-benzo[d]isothiazole-3-carboxylic acid (4-fluoro-3-trifluoromethyl-phenyl)-amide] | 237 to 239

Now from value to compound:

Row | melting point [°C] | SMILES
4 | 138 to 140 | O=C(Nc1ccc(F)c(C(F)(F)F)c1)c1csc2cc(Oc3cc(CO)ncn3)ccc12 [Example 19, 6-(6-Hydroxymethyl-pyrimidin-4-yloxy)-benzo[b]thiophene-3-carboxylic acid (4-fluoro-3-trifluoromethyl-phenyl)-amide]
5 | 181 to 182 | O=C(Nc1cccc(C(F)(F)F)c1)c1coc2cc(Oc3cc(CO)ncn3)ccc12 [Example 22, 6-(6-Hydroxymethyl-pyrimidin-4-yloxy)-benzofuran-3-carboxylic acid (3-trifluoromethyl-phenyl)-amide]
